Measurements: patent publication US5650411A, “Substituted azolone derivatives” (Janssen Pharmaceutica N.V., priority 1993, dated 1997)
In brackets after ≈: the same amount, converted by molar mass. Structures can show the parent of a compound that is named as a salt.

The molecules below were run on Helicobacter pylori (assay: Minimal inhibitory concentration (MIC) against Helicobacter pylori, urease read-out, 5 clinical strains). Conditions: 5 H. pylori clinical strains, 10% blood agar, 48 h at 37° C., microaerophilic, read-out: MIC.
Format: cell-based
Description: The anti-Helicobacter activity of the subject compounds was assessed by the following in-vitro test procedure.
The activity of test compounds against Helicobacter pylori was determined against a standard set of 5 H. priori strains obtained from clinical material. Minimal inhibitory concentrations (MICs) were determined by measuring the activity of H. pylori urease after treatment of growing cultures of the bacteria with the antimicrobial agents.
The test compounds were dissolved in DMSO at a concentration of 10^-3 M. A dilution to 10^-4 M in DMSO was also prepared. 10 μl volumes of these solutions were pipetted in the wells of Repli-Dishes (®Sterilin). Wells containing DMSO alone were included as controls in each Repli-Dish. Ampicillin ((+)-6-[(2-amino-2-phenylacetyl)amino]-3,3-dimethyl-7-oxo-4-thia-1-azabicyclo[3.2.0]heptane-2-carboxylic acid trihydrate) and metronidazole (2-methyl-5-nitro-1H-imidazol-1-ethanol) were included as reference compounds in each batch of tests. (These compounds were tested at final concentrations of 10^-5, 10^-6, 10^-7 and 10^-8 M). Test plates were stored at 4° C. until used. The five isolates of H. pylori were maintained by subculture on 10% blood agar every 2 or 3 days. The bacteria were grown at 37° C. under an atmosphere containing 5% oxygen, 10% CO2 and 85% nitrogen. Suspensions of Helicobacter pylori for inoculum were prepared in Brain-heart infusion broth and adjusted to an absorbance of 1.5±0.3 at […].
Freshly prepared 10% blood agar held at 45° C. was added in 1 ml volumes to the wells of the test plates, thus diluting the test compounds to 10^-5 and 10^-6 M. The medium was allowed to cool, then 10 μl volumes of bacterial suspension were pipetted on the agar surface. The plates were incubated for 48 h at 37° C. under the microaerophilic atmosphere described above. […] After the 48 h of incubation, 1 ml volumes of urease broth were gently added to each Repli-Dish well and the plates were incubated at 37° C. for 2 h. 100 μl samples of fluid from each well were then pipetted into the wells of 96-place microdilution plates. A purple colour was interpreted as growth, yellow-orange as no growth of H. pylori. By this means a clear end-point was obtained, from which the inhibitory effects could be determined.
Table 1 summarizes the MIC values determined by the above procedure for a subset of the subject compounds.
With `CCC(C(=O)c1ccc(Cl)cc1)n1ncn(-c2ccc(N3CCN(c4ccc(OC)cc4)CC3)nc2)c1=O` (racemic) [compound 1, (±)-2-[1-(4-chlorobenzoyl)propyl]-2,4-dihydro-4-[6-[4-(4-methoxyphenyl)-1-piperazinyl]-3-pyridinyl]-3H-1,2,4-triazol-3-one] the MIC was 0.1 µM (≈ 0.0533 µg/mL). `CCC(C(=O)c1ccc(Cl)cc1)n1ncn(-c2ccc(N3CCN(c4ccc(OC)cc4)CC3)cn2)c1=O` (racemic) [compound 2, (±)-2-[1-(4-chlorobenzoyl)propyl]-2,4-dihydro-4-[5-[4-(4-methoxyphenyl)-1-piperazinyl]-2-pyridinyl]-3H-1,2,4-triazol-3-one] showed an MIC of 10 µM (≈ 5.33 µg/mL). In the case of `CCC(C(=O)c1ccc(Cl)cc1)n1ncn(-c2ccc(N3CCN(c4ccc(OC)cn4)CC3)cc2)c1=O` (racemic) [compound 3, (±)-2-[1-(4-chlorobenzoyl)propyl]-2,4-dihydro-4-[4-[4-(5-methoxy-2-pyridinyl)-1-piperazinyl]phenyl]-3H-1,2,4-triazol-3-one], the MIC is reported as 0.1 µM (≈ 0.0533 µg/mL). `CCC(C(=O)c1ccc(Cl)cc1)n1ncn(-c2ccc(N3CCN(c4cccc(OC)c4)CC3)nc2)c1=O` (racemic) [compound 4, (±)-2-[1-(4-chlorobenzoyl)propyl]-4-[6-[4-(3-methoxyphenyl)-1-piperazinyl]-3-pyridinyl]-2,4-dihydro-3H-1,2,4-triazol-3-one] showed an MIC of 0.01 µM (≈ 0.00533 µg/mL). `CCC(C(=O)c1ccc(Cl)cc1)n1ncn(-c2ccc(N3CCN(c4ccccc4OC)CC3)nc2)c1=O` (racemic) [compound 5, (±)-2-[1-(4-chlorobenzoyl)propyl]-2,4-dihydro-4-[6-[4-(2-methoxyphenyl)-1-piperazinyl]-3-pyridinyl]-3H-1,2,4-triazol-3-one] gave an MIC of 0.1 µM (≈ 0.0533 µg/mL). In the case of `CCC(C(=O)c1ccc(Cl)cc1)n1ncn(-c2ccc(N3CCN(c4ccc(OC)nc4)CC3)cc2)c1=O` (racemic) [compound 6, (±)-2-[1-(4-chlorobenzoyl)propyl]-2,4-dihydro-4-[4-[4-(6-methoxy-3-pyridinyl)-1-piperazinyl]phenyl]-3H-1,2,4-triazol-3-one], the MIC is reported as 0.1 µM (≈ 0.0533 µg/mL). Work on `CCC(C(=O)c1ccc(Cl)cc1)n1ncn(-c2ccc(N3CCC(c4cccc(OC)c4)CC3)nc2)c1=O` (racemic) [compound 7, (±)-2-[1-(4-chlorobenzoyl)propyl]-2,4-dihydro-4-[6-[4-(3-methoxyphenyl)-1-piperidinyl]-3-pyridinyl]-3H-1,2,4-triazol-3-one] yielded an MIC of 0.1 µM (≈ 0.0532 µg/mL). In the case of `CCC(C(=O)c1ccc(Cl)cc1)n1ncn(-c2cnc(N3CCN(c4ccc(OC)cc4)CC3)nc2)c1=O` (racemic) [compound 8, (±)-2-[1-(4-chlorobenzoyl)propyl]-2,4-dihydro-4-[2-[4-(4-methoxyphenyl)-1-piperazinyl]-5-pyrimidinyl]-3H-1,2,4-triazol-3-one], the MIC is reported as 0.1 µM (≈ 0.0534 µg/mL). Molecule `CCC(C)(C(O)c1ccc(Br)cc1)n1nc(C)n(-c2ccc(N3CCN(c4ccc(O)cc4)CC3)cc2)c1=O` (racemic) [compound 13, (±)-2-[1-[(4-bromophenyl)hydroxymethyl]-1-methylpropyl]-2,4-dihydro-4-[4-[4-(4-hydroxyphenyl)-1-piperazinyl]phenyl]-5-methyl-3H-1,2,4-triazol-3-one] has an MIC of 0.1 µM (≈ 0.0593 µg/mL). Work on `CCC(C(O)c1ccc(Cl)cc1)n1ncn(-c2ccc(N3CCN(c4ccc(O)cc4)CC3)nc2)c1=O` (racemic) [compound 14, (±)-2-[1-[(4-chlorophenyl)hydroxymethyl]propyl]-2,4-dihydro-4-[6-[4-(4-hydroxyphenyl)-1-piperazinyl]-3-pyridinyl]-3H-1,2,4-triazol-3-one] yielded an MIC of 0.1 µM (≈ 0.0521 µg/mL). With `CC(C)(C(O)c1ccc(Br)cc1)n1ncn(-c2ccc(N3CCN(c4ccc(O)cc4)CC3)cc2)c1=O` (racemic) [compound 21, (±)-2-[2-(4-bromophenyl)-2-hydroxy-1,1-dimethylethyl]-2,4-dihydro-4-[4-[4-(4-hydroxyphenyl)-1-piperazinyl]phenyl]-3H-1,2,4-triazol-3-one] the MIC was 0.1 µM (≈ 0.0564 µg/mL). `Cc1nn(C(C)(C)C(O)c2ccc(Br)cc2)c(=O)n1-c1ccc(N2CCN(c3ccc(O)cc3)CC2)cc1` (racemic) [compound 22, (±)-2-[2-(4-bromophenyl)-2-hydroxy-1,1-dimethylethyl]-2,4-dihydro-4-[4-[4-(4-hydroxyphenyl)-1-piperazinyl]phenyl]-5-methyl-3H-1,2,4-triazol-3-one] showed an MIC of 1 µM (≈ 0.579 µg/mL). With `CCC(C(=O)c1ccc(Cl)cc1)n1ncn(-c2ccc(N3CCN(c4ccc(O)cc4)CC3)nc2)c1=O` (racemic) [compound 25, (±)-2-[1-(4-chlorobenzoyl)propyl]-2,4-dihydro-4-[6-[4-(4-hydroxyphenyl)-1-piperazinyl]-3-pyridinyl]-3H-1,2,4-triazol-3-one] the MIC was 0.1 µM (≈ 0.0519 µg/mL). Molecule `CCC(C(=O)c1ccc(Cl)cc1)n1ncn(-c2cnc(N3CCN(c4ccc(O)cc4)CC3)nc2)c1=O` (racemic) [compound 26, (±)-2-[1-(4-chlorobenzoyl)propyl]-2,4-dihydro-4-[2-[4-(4-hydroxyphenyl)-1-piperazinyl]-5-pyrimidinyl]-3H-1,2,4-triazol-3-one] has an MIC of 0.1 µM (≈ 0.052 µg/mL). Molecule `CCC(C(=O)c1ccc(Cl)cc1)n1ncn(-c2ccc(N3CCN(c4ccc(O)cn4)CC3)cc2)c1=O` (racemic) [compound 27, (±)-2-[1-(4-chlorobenzoyl)propyl]-2,4-dihydro-4-[4-[4-(5-hydroxy-2-pyridinyl)-1-piperazinyl]phenyl]-3H-1,2,4-triazol-3-one] has an MIC of 0.1 µM (≈ 0.0519 µg/mL). `CCC(C(=O)c1ccc(Cl)cc1)n1ncn(-c2ccc(N3CCN(c4cccc(O)c4)CC3)nc2)c1=O` (racemic) [compound 28, (±)-2-[1-(4-chlorobenzoyl)propyl]-2,4-dihydro-4-[6-[4-(3-hydroxyphenyl)-1-piperazinyl]-3-pyridinyl]-3H-1,2,4-triazol-3-one] showed an MIC of 0.01 µM (≈ 0.00519 µg/mL). Work on `CCC(C(=O)c1ccc(Cl)cc1)n1ncn(-c2ccc(N3CCN(c4ccccc4O)CC3)nc2)c1=O` (racemic) [compound 29, (±)-2-[1-(4-chlorobenzoyl)propyl]-2,4-dihydro-4-[6-[4-(2-hydroxyphenyl)-1-piperazinyl]-3-pyridinyl]-3H-1,2,4-triazol-3-one] yielded an MIC of 0.1 µM (≈ 0.0519 µg/mL). For `Cc1nn(CC(O)c2ccc(OC(F)(F)F)cc2)c(=O)n1-c1ccc(N2CCN(c3ccc(O)cc3)CC2)cc1` (racemic) [compound 36, (±)-2,4-dihydro-4-[4-[4-(4-hydroxyphenyl)-1-piperazinyl]phenyl]-2-[2-hydroxy-2-[4-(trifluoromethoxy)-phenyl]ethyl]-5-methyl-3H-1,2,4-triazol-3-one], the MIC was 10 µM (≈ 5.56 µg/mL). `CCC(C(=O)c1ccc(Cl)cc1)n1ncn(-c2ccc(N3CCN(c4ccc(OC)cn4)CC3)nc2)c1=O` (racemic) [compound 37, (±)-2-[1-(4-chlorobenzoyl)propyl]-2,4-dihydro-4-[6-[4-(5-methoxy-2-pyridinyl) -1-piperazinyl]-3-pyridinyl]-3H-1,2,4-triazol-3-one] was tested, and the MIC was 0.1 µM (≈ 0.0534 µg/mL). For `CCC(C(=O)c1ccc(Cl)cc1)n1ncn(-c2ccc(N3CCC(c4ccc(OC)c(OC)c4)CC3)nc2)c1=O` (racemic) [compound 45, (±)-2-[1-(4-chlorobenzoyl)propyl]-4-[6-[4-(3,4-dimethoxyphenyl)-1-piperidinyl]-3-pyridinyl]-2,4-dihydxo-3H-1,2,4-triazol-3-one], the MIC was 0.01 µM (≈ 0.00562 µg/mL). With `CCC(C(=O)c1ccc(Cl)cc1)n1ncn(-c2ccc(N3CCN(c4ccc(OC)c(OC)c4)CC3)nc2)c1=O` (racemic) [compound 48, (±) -2-[1-(4-chlorobenzoyl)propyl]-4-[6-[4-(3,4-dimethoxyphenyl)-1-piperazinyl]-3-pyridinyl]-2,4-dihydro-3H-1,2,4-triazol-3-one dihydrochloride] the MIC was ≤ 0.001 µM. `Cc1cc(N2CCN(c3ccc(-n4c(C)nn([C@H](C)[C@H](O)c5ccc(Cl)c(Cl)c5)c4=O)cc3)CC2)cc(C)c1O` (relative stereo) [compound 10, (±)-(R*,R*)-2-[2-(3,4-dichlorophenyl)-2-hydroxy-1-methylethyl]-2,4-dihydro-4-[4-[4-(4-hydroxy-3,5-dimethylphenyl)-1-piperazinyl]phenyl]-5-methyl-3H-1,2,4-triazol-3-one hemihydrate] showed an MIC of 1 µM. For `CC[C@H]([C@H](O)c1ccc(Cl)cc1)n1ncn(-c2ccc(N3CCN(c4ccc(OC)cn4)CC3)cc2)c1=O` (relative stereo) [compound 15, (±)-(RR,SS)-2-[1-[(4-chlorophenyl)hydroxymethyl]propyl]-2,4-dihydro-4-[4-[4-(5-methoxy-2-pyridinyl)-1-piperazinyl]phenyl]-3H-1,2,4-triazol-3-one], the MIC was 0.1 µM (≈ 0.0535 µg/mL). In the case of `CC[C@H]([C@H](O)c1ccc(Cl)cc1)n1ncn(-c2ccc(N3CCN(c4ccccc4OC)CC3)nc2)c1=O` (relative stereo) [compound 17, (±)-(R*,R*)-2-[1-[(4-chlorophenyl)hydroxymethyl]propyl]-2,4-dihydro-4-[6-[4-(2-methoxyphenyl)-1-piperazinyl]-3-pyridinyl]-3H-1,2,4-triazol-3-one], the MIC is reported as 0.1 µM (≈ 0.0535 µg/mL).
